Data published in US7119229B2 (priority 2001, dated 2006).
Where two headings read alike, the source gives them in different places.

Experiments:
[1] = test system: TA98
Protocol: (§1) This assay is carried out to test mutagenicity of chemical substances using histidine auxotrophic strains that are one of Salmonella Typhimurium mutants. […] When various mutagens are added to the culture medium, only revertants generated by reverse mutation survive.
(§2) Ames test was carried out using […]. […] After incubation, the number of revertant colonies was counted. 3 plates were prepared for each test and the average was calculated.

[2] = test system: TA100
Protocol: as §1, §2

[3] = test system: TA1535; settings: TA1525 (so in the source)
Protocol: as §1, §2

Which “Colony/Plate S-9 Mixture (+)” value ([1]; TA98, 317.5 μg/Plate) does the source give for `COc1cc2c(c(OC)c1OC)-c1ccc(OC)c(=O)cc1[C@@H](NC(=O)c1cccc(CO[N+](=O)[O-])c1)CC2` [Compound 6, 3-nitrooxymethyl-N-(1,2,3,10-tetramethoxy-9-oxo-5,6,7,9-tetrahydro-benzo[a]heptarene-7-yl)-benzamide] here?
Its value is 32 Colony/Plate.

What about the “Colony/Plate S-9 Mixture (−)” value ([1]; TA98, 317.5 μg/Plate) of the same molecule?
The value was 21 Colony/Plate.

And the “Colony/Plate S-9 Mixture (+)” value ([1]; TA98, 625 μg/Plate)?
The value was 29 Colony/Plate.

And the “Colony/Plate S-9 Mixture (−)” value ([1]; TA98, 625 μg/Plate)?
Its value is 32 Colony/Plate.

What about the “Colony/Plate S-9 Mixture (+)” value ([1]; TA98, 1250 μg/Plate) of the same molecule?
Its value is 33 Colony/Plate.

What about the “Colony/Plate S-9 Mixture (−)” value ([1]; TA98, 1250 μg/Plate) of the same molecule?
Its value is 24 Colony/Plate.

What about the “Colony/Plate S-9 Mixture (+)” value ([1]; TA98, 2500 μg/Plate) of the same molecule?
Its value is 22 Colony/Plate.

And the “Colony/Plate S-9 Mixture (−)” value ([1]; TA98, 2500 μg/Plate)?
The value was 22 Colony/Plate.

And the “Colony/Plate S-9 Mixture (+)” value ([1]; TA98, 5000 μg/Plate)?
Its value is 23 Colony/Plate.

What about the “Colony/Plate S-9 Mixture (−)” value ([1]; TA98, 5000 μg/Plate) of the same molecule?
Its value is 19 Colony/Plate.

What about the “Colony/Plate S-9 Mixture (+)” value ([2]; TA100, 317.5 μg/Plate) of the same molecule?
The value was 96 Colony/Plate.

And the “Colony/Plate S-9 Mixture (−)” value ([2]; TA100, 317.5 μg/Plate)?
Its value is 81 Colony/Plate.

And the “Colony/Plate S-9 Mixture (+)” value ([2]; TA100, 625 μg/Plate)?
The value was 84 Colony/Plate.

And the “Colony/Plate S-9 Mixture (−)” value ([2]; TA100, 625 μg/Plate)?
Its value is 77 Colony/Plate.

And the “Colony/Plate S-9 Mixture (+)” value ([2]; TA100, 1250 μg/Plate)?
The value was 81 Colony/Plate.

And the “Colony/Plate S-9 Mixture (−)” value ([2]; TA100, 1250 μg/Plate)?
Its value is 84 Colony/Plate.

What about the “Colony/Plate S-9 Mixture (+)” value ([2]; TA100, 2500 μg/Plate) of the same molecule?
Its value is 77 Colony/Plate.

What about the “Colony/Plate S-9 Mixture (−)” value ([2]; TA100, 2500 μg/Plate) of the same molecule?
Its value is 88 Colony/Plate.

What about the “Colony/Plate S-9 Mixture (+)” value ([2]; TA100, 5000 μg/Plate) of the same molecule?
Its value is 78 Colony/Plate.

And the “Colony/Plate S-9 Mixture (−)” value ([2]; TA100, 5000 μg/Plate)?
The value was 79 Colony/Plate.

What about the “Colony/Plate S-9 Mixture (+)” value ([3]; 317.5 μg/Plate) of the same molecule?
The value was 14 Colony/Plate.

And the “Colony/Plate S-9 Mixture (−)” value ([3]; 317.5 μg/Plate)?
Its value is 14 Colony/Plate.

And the “Colony/Plate S-9 Mixture (+)” value ([3]; 625 μg/Plate)?
The value was 12 Colony/Plate.

What about the “Colony/Plate S-9 Mixture (−)” value ([3]; 625 μg/Plate) of the same molecule?
Its value is 18 Colony/Plate.

And the “Colony/Plate S-9 Mixture (+)” value ([3]; 1250 μg/Plate)?
The value was 11 Colony/Plate.

And the “Colony/Plate S-9 Mixture (−)” value ([3]; 1250 μg/Plate)?
Its value is 15 Colony/Plate.

And the “Colony/Plate S-9 Mixture (+)” value ([3]; 2500 μg/Plate)?
The value was 11 Colony/Plate.

What about the “Colony/Plate S-9 Mixture (−)” value ([3]; 2500 μg/Plate) of the same molecule?
The value was 10 Colony/Plate.

And the “Colony/Plate S-9 Mixture (+)” value ([3]; 5000 μg/Plate)?
The value was 9 Colony/Plate.

What about the “Colony/Plate S-9 Mixture (−)” value ([3]; 5000 μg/Plate) of the same molecule?
Its value is 13 Colony/Plate.
